In assay [1] the test system is SKBR3. Briefly: ATP release from cells (ENLITEN ATP Assay), SKBR3. In kind it is cell-based. The note with it: AF-HPA or XMT-1519 conjugate at 0.5 μM, 24 h, mitoxantrone positive control, compared to untreated (control) cells, FIG. 2. On the procedure: (§1) Cancer cells undergoing apoptosis in response to specific anticancer therapies are immunogenic (also known as immunogenic cell death (ICD)), as long as they emit precise DAMPs in a spatiotemporally defined fashion. […] Mitoxantrone, a known strong inducer of ICD and ATP release, was used as a positive control. Briefly, two HER2 expressing cell lines, JIMT-1 (cat. # ACC589, DSMZ Cell Collection) and SKBR3 (cat # ATCC® HTB 30™, American Tissue Culture Collection) were seeded at a density of 7500 cells per well in 24 wells plate, allowed to grow for 24 h, and then treated with AF-HPA or XMT-1519 conjugate at 0.5 μM in 100 μl in […] (Cat#11875-119, Thermo Fisher Scientific) for 24 h. The cells were then pelleted by centrifugation and ATP release was measured using ENLITEN® ATP Assay System (Promega) according to manufacturer's instructions.

Another assay concerns NCI-N87 cells. Put plainly: Calreticulin exposure on cell membrane (flow cytometry), NCI-N87. Format: cell-based, human. The note with it: 2.5 h at 37° C. How it is done: (§2) High HER2-expressing cell lines, NCI-N87 (800,000 HER2 receptors), SKBR3 (700,000 HER2 receptors) and low HER2 expressing cell line HT-29 (16,000 HER2 receptors) were re-suspended at a density of 2×10^6 cells/mL in 100 μl PBS containing 2% FBS. Cells in 96 well plate (Corning® 96 Well Clear Round Bottom Polypropylene Not Treated Microplate cat#3879) were treated with XMT-1519 conjugate or AF-HPA at 1 μM or with mitoxantrone, a strong calreticulin exposure inducer, at 0.01 to 1 μM for 2.5 h at 37° C. Cells were then incubated with anti-calreticulin antibody (clone 16B11.1 Cat: MABT217, Millipore Sigma, 1:200) in ice cold PBS containing 2% FBS for 1 h on ice, washed twice with cold PBS containing 2% and then incubated for 20 min on ice with a secondary antibody (Alexa 647-anti Mouse IgG (H+L) 1:800, Thermo Fisher Scientific Cat#:A32728) in ice cold PBS containing 2% FBS. Thereafter the cells were stained with Annexin V (Pacific Blue™ cat# A35122, Thermo Fisher Scientific) according to manufacturer's instructions to identify apoptotic cell population. Necrotic cell population was labeled by propidium iodide (cat# P3566 Thermo Fisher Scientific) at 1:1000 dilution. Cells were then analyzed by flow cytometry using MACSQuant® Analyzer 10. Apoptotic and necrotic cell populations were excluded and only live cells for measured for calreticulin exposure.
For orientation: In flow cytometry, cells or beads pass a laser one at a time.

The next assay deals with JIMT-1. Briefly: ATP release from cells (ENLITEN ATP Assay), JIMT-1. Format: cell-based, human. The note with it: AF-HPA or XMT-1519 conjugate at 0.5 μM, 24 h, mitoxantrone positive control, compared to untreated (control) cells, FIG. 2. How it is done: as §1
In a further assay the target is human HER2 (Homo sapiens, UniProt P04626). Briefly: Inhibition of HER2 functional activity in vitro. On the procedure: The HER2 antibodies disclosed herein serve to modulate, block, inhibit, reduce, antagonize, neutralize or otherwise interfere with the functional activity of HER2. HER2. Functional activities of HER2 include for example, modulation of PI3K-Akt pathway activity. […] PI3K-Akt pathway activity is assessed using any art-recognized method for detecting PI3K-Akt pathway activity, including, but not limited to detecting levels of phosphorylated Akt in the presence and absence of an antibody or antigen binding fragment disclosed herein.
The HER2 antibodies are considered to completely modulate, block, inhibit, reduce, antagonize, neutralize or otherwise interfere with HER2 functional activity when the level of HER2 functional activity in the presence of the HER2 antibody is decreased by at least 95%, e.g., by 96%, 97%, 98%, 99% or 100% as compared to the level of HER2 functional activity in the absence of binding with a HER2 antibody described herein. The HER2 antibodies are considered to partially modulate, block, inhibit, reduce, antagonize, neutralize or otherwise interfere with HER2 functional activity when the level of HER2 activity in the presence of the HER2 antibody is decreased by less than 95%, e.g., 10%, 20%, 25%, 30%, 40%, 50%, 60%, 75%, 80%, 85% or 90% as compared to the level of HER2 activity in the absence of binding with a HER2 antibody described herein.

The test system of assay [2] is 4T1-7bb7 cells (human HER2-expressing mouse 4T1 breast cancer). Briefly: Tumor response in 4T1-7bb7 syngeneic mouse model (Example 5). In kind it is in vivo, Balb/c mice. The note with it: per Table 2: XMT-1519 conjugate 4.0 mg/kg IV qwx2; Kadcyla 15.0 mg/kg IV qwx2; anti-PD1 mAb 10.0 mg/kg IP days 0, 2, 4, 7, 10; n=13; FIG. 5. How it is done: Tumor growth inhibition (% TGI) was defined as the percent difference in median tumor volumes (MTVs) between treated and control groups.
Treatment efficacy was determined from the incidence and magnitude of regression responses of the tumor size observed during the study. Treatment may cause partial regression (PR) or complete regression (CR) of the tumor in an animal. In a PR response, the tumor volume was 50% or less of its Day 1 volume for three consecutive measurements during the course of the study, and equal to or greater than 13.5 mm^3 for one or more of these three measurements. In a CR response, the tumor volume was less than 13.5 mm^3 for three consecutive measurements during the course of the study. An animal with a CR response at the termination of a study was additionally classified as a tumor-free survivor (TFS). Animals were monitored for regression responses.
Six to eight week old female, Balb/c mice (Jackson Labs, Bar Harbor, Me.) were subcutaneously implanted unilaterally on the left flank with 4×10^4/mouse 4T1-7bb7 cells (n=13 mice/group). […] Tumor sizes were measured twice a week using digital calipers, and average tumor volume was calculated to determine tumor growth inhibition. […]

For a further assay, the system named is HT-29. Briefly: Calreticulin exposure on cell membrane (flow cytometry), HT-29. In kind it is cell-based. The note with it: HT-29 (16,000 HER2 receptors, low HER2); 1 μM, 2.5 h at 37° C; FIG. 3. On the procedure:
as §2

Assay [3] relates to SKBR3. Put plainly: Calreticulin exposure on cell membrane (flow cytometry), SKBR3. In kind it is cell-based. The note with it: SKBR3 (700,000 HER2 receptors); 1 μM, 2.5 h at 37° C; FIG. 3. How it is done: as §2
The test system of assay [4] is TumorGraft™ model of non-small cell lung carcinoma (CTG-0860). Briefly: Antitumor activity in low passage TumorGraft model of non-small cell lung carcinoma in humanized mice (CTG-0860). Format: in vivo. The note with it: per Table 1: XMT-1519 conjugate 1.0 mg/kg IV q7dx3; pembrolizumab 2.5 mg/kg IP q5dx6; n=5 per group; FIG. 1.
Method: Unmatched human leukocyte antigen (HLA) humanized CD34+ engrafted immune compromised female mice (Taconic NOG) were subcutaneously implanted unilaterally on the left flank with tumor fragments (n=5 for each group and two additional mice for tumor infiltration lymphocytes measurement for the test compounds only). […] Tumor size was measured at the times indicated in FIG. 1 using digital calipers. Tumor volume was calculated and was used to determine the tumor growth inhibition. Control mice were sacrificed when tumors reached a size of 1500 mm^3. Tumor volumes are reported as the mean±SEM for each group.
When tumors reached a size of 1500 mm^3 in control mice, they were sacrificed as well as two mice from each treatment groups, and tumor infiltration lymphocytes were analyzed. At the study endpoint (day 49) all the surviving mice were sacrificed and tumor infiltration lymphocytes were analyzed. Tumors were dissociated and analyzed for tumor infiltrating lymphocytes by flow cytometry for the following markers: human CD45 infiltrating lymphocytes, hCD3 (T cells), hCD4 (helper T cells), hCD8 (cytotoxic T cells), hCD19 (B cells), T cells activation and proliferation—hCD25.
Where [5] appears, read: NCI-N87 (800,000 HER2 receptors), 1 μM, live cells only, FIG. 3.

Non-standard residues stand in square brackets, D forms with d. Residues, ends and D or L forms follow the SMILES beside them. *: point of attachment. Dolaproine = CO[C@@H]([C@@H]1CCCN1)[C@@H](C)C(=O)O; Dil = CC[C@H](C)[C@H](NC)[C@@H](CC(=O)O)OC; NMe2Val = CC(C)[C@@H](C(=O)*)N(C)C; NH(3-hydroxypropyl) = OCCCN*

Regarding `CC[C@H](C)[C@@H]([C@@H](CC(=O)N1CCC[C@H]1[C@H](OC)[C@@H](C)C(=O)N[C@@H](Cc1ccccc1)C(=O)NCCCO)OC)N(C)C(=O)[C@@H](NC(=O)[C@H](C(C)C)N(C)C)C(C)C` [AF-HPA, Auristatin F-hydroxypropyl amide] (NMe2Val-V[Dil][Dolaproine]F-{NH(3-hydroxypropyl)}), the ATP release result in the assay on SKBR3 [1] and in the assay on JIMT-1 was “ATP was released” throughout. Moreover, the “calreticulin exposure on cell membrane” value in the assay with NCI-N87 cells (setting [5]) is on record as “induced calreticulin exposure”.
Take “XMT 1519: fully human HER2 monoclonal antibody, heavy chain SEQ ID NO: 5, light chain SEQ ID NO: 6”: the “functional activity of HER2” value in the assay with human HER2 was “inhibit the functional activity of HER2 in vitro”.
On to “XMT 1519-(EG2-MI-(7.7 kDa PHF-BA-(AF-HPA-Ala))) [XMT-1519 conjugate]”, for which the ATP release entry with SKBR3 [1] and in the assay with JIMT-1 was “ATP was released” in each case. The “calreticulin exposure on cell membrane” value in the assay on NCI-N87 cells (setting [5]), in the assay on HT-29 and with SKBR3 [3] was “induced calreticulin exposure” in each case. Also, the “tumor response (tumor growth inhibition / anti-tumor efficacy)” value in assay [2] was “significant inhibition of tumor growth”. Besides, in assay [4], the “tumor response (tumor volume / tumor growth inhibition)” value is reported as “decrease in tumor volume”.
In the case of `O=C1c2c(O)ccc(O)c2C(=O)c2c(NCCNCCO)ccc(NCCNCCO)c21` [mitoxantrone, reference compound], the ATP release entry in the assay with SKBR3 [1] and with JIMT-1 was “ATP was released” each time. Also, in the assay with NCI-N87 cells (NCI-N87, mitoxantrone at 0.01 to 1 μM, FIG. 3 panel (a)), the “calreticulin exposure on cell membrane” value is “dose dependent calreticulin exposure”.

The values above are taken from US20180271996A1, “COMBINATION THERAPIES OF HER2-TARGETED ANTIBODY-DRUG CONJUGATES” (Mersana Therapeutics, Inc., priority 2017, published 2018).
